# Tests used:
# [1] = tested on: adult patients diagnosed with highly active, non-cirrhotic NASH; conditions: background statement, cited from earlier work
# [2] = tested on: adult patients diagnosed with highly active, non-cirrhotic NASH; assay: NATIVE phase 2b trial of lanifibranor, liver histology response at Week 24; format: in vivo, human; conditions: once daily orally, 24 weeks
# Excerpt: Patients were eligible for inclusion if they were 18 years of age or older and had non-cirrhotic NASH (the diagnosis of which required a Steatosis, Activity, Fibrosis [SAF] grade of 1 or higher for steatosis, hepatocellular ballooning and lobular inflammation on liver biopsy). A score of 3 or higher on the SAF-A (the activity part of the SAF scoring system that incorporates the scores for hepatocellular ballooning and lobular inflammation) was also a criterion for eligibility. Patients with stage F4 fibrosis, classified according to the criteria of both the SAF and NASH Clinical Research Network (NASH CRN) were excluded from the study. Patients were randomly assigned in a 1:1:1 ratio to receive 800 or 1200 mg lanifibranor or placebo once daily for 24 weeks. Liver biopsy was obtained at baseline and at the end of treatment. The primary end point of the NATIVE study was defined as a decrease of at least 2 points from baseline to Week 24 (end of treatment) in the SAF-A score and no worsening of fibrosis. Secondary histologic end points included resolution of NASH (defined as a ballooning grade of 0 and a lobular inflammation grade of ≤1) and no worsening of fibrosis; improvement in fibrosis of at least 1 stage and no worsening of NASH (i.e., no worsening in either steatosis, ballooning, or lobular inflammation); Nonalcoholic Fatty Liver Disease Activity Score (NAS) improvement (defined as a decrease of ≥2 points from baseline to week 24 in the NAS) and no worsening of fibrosis; resolution of NASH and an improvement in fibrosis stage of at least 1 (as a composite end point); change in scores for the components of the SAF and NASH CRN scoring system (steatosis, activity, inflammation, ballooning, and fibrosis); and change in the modified Ishak score. Non-histologic secondary endpoints included changes in a panel of serum biomarkers related to metabolism, inflammation tissue injury and fibrosis. Patients receiving lanifibranor 800 or 1200 mg per day were pooled and those with pre- and post-treatment liver biopsies were selected (n=142). Post-treatment biopsies were considered if they occurred within 14 days following last lanifibranor intake. The following histological endpoint according to NASH-CRN criteria was considered: NASH resolution without worsening of fibrosis (E2). In the NATIVE trial, from February 2017 through July 2019, 247 patients were randomly assigned to receive 1200 mg of lanifibranor (N=83), 800 mg of lanifibranor (N=83), or placebo (N=81) orally once daily for 6 months. A total of 228 patients completed the trial, 77 in each lanifibranor group and 74 in the placebo group. Reasons for discontinuation of the trial regimen have been reported elsewhere. Finally, among the 154 patients treated with lanifibranor at both doses, 142 patients (N=70 and N=72 patients treated with 800 or 1200 mg per day, respectively) presented with pre- and post-treatment liver biopsies within the time frame required for the present work and were included in the analysis population for signature development.
# [3] = 800 and 1200 mg per day pooled, analysis population N=142
structure (smiles),measurement,setting,value
"O=C(O)CCCc1cc2cc(Cl)ccc2n1S(=O)(=O)c1ccc2ncsc2c1 [lanifibranor, 4-[1-(1,3-benzothiazol-6-ylsulfonyl)-5-chloroindol-2-yl]butanoic acid]","Percentage of patients with a decrease of at least 2 points in the SAF-A score without worsening of fibrosis, compared to placebo","[1]; daily dose of 1200 mg, patients with active NASH",significantly higher
same,"Secondary endpoints (NASH resolution and fibrosis improvement, NASH resolution without worsening of fibrosis, improvement of fibrosis without worsening of NASH; NASH-CRN), compared to placebo",[1]; lanifibranor groups,more favorable than placebo
same,"Resolution of NASH without worsening of liver fibrosis (E2), number of patients","[2]; 800 mg per day, N=70",27 patients
same,"Resolution of NASH without worsening of liver fibrosis (E2), percentage of patients","[2]; 800 mg per day, N=70",39%
same,"Resolution of NASH without worsening of liver fibrosis (E2), number of patients","[2]; 1200 mg per day, N=72",36 patients
same,"Resolution of NASH without worsening of liver fibrosis (E2), percentage of patients","[2]; 1200 mg per day, N=72",50%
same,"Resolution of NASH without worsening of liver fibrosis (E2), number of patients",[2]; [3],63 patients
same,"Resolution of NASH without worsening of liver fibrosis (E2), percentage of patients",[2]; [3],44%

# From patent publication US20240410904A1, “NON-INVASIVE MONITORING OF LIVER DISEASE TREATMENT” (INVENTIVA, priority 2023, published 2024)
